In patent US8883841B2, “Oncogenic ras-specific cytotoxic compound and methods of use thereof” (The Board of Regents of the University of Texas System, priority 2005, dated 2014):
Like-named read-outs stand apart in the source and are kept apart here.

Key:
PKCiota = test: Immunohistochemical staining, subcellular localization of PKCiota; type: cell-based, human; settings: 12 h; comparators at doses giving similar cell killing
Experimental: Effects on subcellular localization of PKCiota. […] To further investigate molecular mechanisms of Oncrasin action the inventors studied the subcellular localization of several molecules involved in Ras-signaling pathway because the functions of Ras and other proteins are directly related to their subcellular localizations. For this purpose, T29Kt1 or H460 cells were seeded on cover glass slides and treated with DMSO or Oncrasin-1 for 12 h. Cells were then fixed with paraformaldehyde, permeabilized with Triton X-100 and stained with various antibodies for immunohistochemical examination. […] Nevertheless, substantial subcellular localization change was detected for PKCiota after Oncrasin-1 treatment (FIG. 6). In both H460 and T29Kt1 cells, both PKCiota and PKCzeta were diffusely distributed in cells with high concentration on cell membrane in nucleus, consisting with previous reports that aPKC contains both nuclear localization signal (NLS) and nuclear export signal (NES), and can shuttle between cytoplasm and nucleus, which was regulated by intramolecular conformational changes, phosphorylation or by treatment with growth factors (Perander et al., 2001; White et al., 2002; Neri et al., 1999). […] Such aggregation of PKCiota was not observed in Oncrasin-resistant T29 and H1299 cells. The inventors then tested whether PKCiota aggregation in the nucleus can be induced by other chemotherapeutic agents such as 5-fluorouracil (5-FU) and paclitaxol.

Hct116 = test: Cell viability, Hct116 colon cancer cells; type: cell-based, human
H23 = test: Cell viability, H23 lung cancer cells; type: cell-based, human; settings: Homo sapiens, NCI-H23, read-out: IC50 (−LogM) (converted)
Ovcar3 = test: Cell viability, Ovcar3 ovary cancer cells; type: cell-based; settings: Homo sapiens, OVCAR-3
H322 cells = test: Cell viability, H322 lung cancer cells; type: cell-based, human; settings: Homo sapiens, NCI-H322, read-out: IC50 (−LogM) (converted)
H2009 = test: Cell viability, H2009 lung cancer cells; type: cell-based, human; settings: Homo sapiens, NCI-H2009, read-out: IC50 (−LogM) (converted)
Hey = test: Cell viability, Hey ovary cancer cells; type: cell-based
miapac = test: Cell viability, miapac pancreatic cancer cells; type: cell-based, human; settings: Homo sapiens, Pancreatic cancer cell, read-out: IC50 (−LogM) (converted)
A549CK8 = test: Cell viability, A549CK8 lung cancer cells; type: cell-based, human; settings: Homo sapiens, read-out: IC50 (−LogM) (converted)
AsPC-1 = test: Cell viability, AsPC-1 pancreatic cancer cells; type: cell-based, human
Capanc-1 = test: Cell viability, Capanc-1 pancreatic cancer cells; type: cell-based, human; settings: capanc1, Pancrease
Sw620 = test: Cell viability, Sw620 colon cancer cells; type: cell-based, human
DLD1 = test: Cell viability, DLD1 colon cancer cells; type: cell-based, human; settings: Homo sapiens, DLD-1, read-out: IC50 (−LogM) (converted)
H1395 = test: Cell viability, H1395 lung cancer cells; type: cell-based, human; settings: Homo sapiens, NCI-H1395, read-out: IC50 (−LogM) (converted)
H1299 cells = test: Cell viability, H1299 lung cancer cells; type: cell-based, human
Ovca429 = test: Cell viability, Ovca429 ovary cancer cells; type: cell-based
A549 cells = test: Cell viability, A549 lung cancer cells; type: cell-based, human; settings: A549, Lung
HKE3 = test: Cell viability, HKE3 colon cancer cells; type: cell-based, human; settings: HKE3, Colon
H2122 = test: Cell viability, H2122 lung cancer cells; type: cell-based, human; settings: Homo sapiens, NCI-H2122, read-out: IC50 (−LogM) (converted)
H1933 = test: Cell viability, H1933 lung cancer cells; type: cell-based, human; settings: Homo sapiens, read-out: IC50 (−LogM) (converted)
Heb46 = test: Cell viability, Heb46 kidney cells; type: cell-based
SKOV3 = test: Cell viability, SKOV3 ovary cancer cells; type: cell-based; settings: Homo sapiens, SK-OV-3
H460 cells = test: cells; settings: Homo sapiens
Ovcar443 = test: Cell viability, Ovcar443 ovary cancer cells; type: cell-based
T29Kt1 cells = settings: Table 1, value is the negative log10 of mol/L
H226B cells = test: Cell viability, H226B lung cancer cells; type: cell-based, human; settings: for IC50 (−LogM): H226B, Lung, listed as Onk29; for IC50: Homo sapiens
Heb44 = test: Cell viability, Heb44 kidney cells; type: cell-based
CT116P53 = test: Cell viability, CT116P53 colon cancer cells; type: cell-based, human; settings: Homo sapiens, read-out: IC50 (−LogM) (converted)
H2087 = test: Cell viability, H2087 lung cancer cells; type: cell-based, human; settings: Homo sapiens, NCI-H2087, read-out: IC50 (−LogM) (converted)

## O=c1cc(N2CCOCC2)oc2c(-c3ccccc3)cccc12 [LY294003, reference compound]
PKCiota
  PKCiota aggregation in the nucleus, T29Kt1 cells: did not induce PKCiota aggregation

## O=c1[nH]cc(F)c(=O)[nH]1 [Oncrasin 5-FLY, 5-fluorouracil, reference compound]
PKCiota
  PKCiota aggregation in the nucleus, T29Kt1 cells: did not induce PKCiota aggregation

## O=Cc1cn(Cc2ccc(Br)cc2)c2ccccc12 [Oncrasin K029, 1-(4-bromobenzyl)-1H-indole-3-carbaldehyde]
Hct116; Hct116, Colon, listed as OnK29
  IC50 (−LogM): 5.5 −LogM
Hct116; Homo sapiens, HCT-116, read-out: IC50 (−LogM), Hct116, Colon (converted)
  IC50: 2.51 µM
H23
  IC50: 31.6 µM
Ovcar3
  IC50: 5.01 µM
H322 cells
  IC50: 31.6 µM
H2009
  IC50: < 31.6 µM
Hey
  IC50: 31.6 µM
miapac
  IC50: < 31.6 µM
A549CK8
  IC50: 3.16 µM
AsPC-1; ASPC1, Pancrease, listed as OnK29
  IC50 (−LogM): 5.3 −LogM
AsPC-1; Homo sapiens, ASPC1, read-out: IC50 (−LogM), ASPC1, Pancrease (converted)
  IC50: 3.98 µM
Capanc-1; listed as OnK29
  IC50 (−LogM): 5 −LogM
Capanc-1; listed as Onk29
  IC50 (−LogM): 6 −LogM
Sw620; Homo sapiens, SW-620, read-out: IC50 (−LogM), Sw620, Colon (converted)
  IC50: 31.6 µM
Sw620; Sw620, Colon, listed as OnK29
  IC50 (−LogM): >4.5 −LogM
DLD1
  IC50: < 31.6 µM
H1395
  IC50: 31.6 µM
H1299 cells; Homo sapiens, NCI-H1299, read-out: IC50 (−LogM), h1299, Lung (converted)
  IC50: 12.6 µM
H1299 cells; h1299, Lung, listed as OnK29
  IC50 (−LogM): 5.1 −LogM
Ovca429
  IC50: 3.16 µM
A549 cells; listed as OnK29
  IC50 (−LogM): 5 −LogM
A549 cells; listed as Onk29
  IC50 (−LogM): >4.5 −LogM
HKE3; first HKE3 line, listed as OnK29
  IC50 (−LogM): 6.6 −LogM
HKE3; first HKE3 line, listed as Onk29
  IC50 (−LogM): 7 −LogM
HKE3; second HKE3 line, listed as OnK29
  IC50 (−LogM): 5.8 −LogM
HKE3; second HKE3 line, listed as Onk29
  IC50 (−LogM): 6.3 −LogM
H2122
  IC50: 2 µM
H1933
  IC50: 31.6 µM
Heb46; listed as OnK29
  IC50 (−LogM): 5.6 −LogM
Heb46; listed as Onk29
  IC50 (−LogM): 6.6 −LogM
SKOV3
  IC50: 3.16 µM
H460 cells; NCI-H460, read-out: IC50 (−LogM), H460, Lung (converted)
  IC50: 0.00316 µM
H460 cells; NCI-H460, read-out: IC50 in H460 cells, Table 1
  IC50: 0.00316 µM
Ovcar443
  IC50: 10 µM
T29Kt1 cells; listed as K29
  IC50 in T29k cells: 6.6
T29Kt1 cells
  IC50 in T29k cells: 5
H226B cells; first H226B line
  IC50 (−LogM): 7.1 −LogM
H226B cells; second H226B line
  IC50 (−LogM): 5.5 −LogM
H226B cells; read-out: IC50 (−LogM), H226B, Lung, first H226B line (converted)
  IC50: 0.126 µM
H226B cells; read-out: IC50 (−LogM), H226B, Lung, second H226B line (converted)
  IC50: 5.01 µM
Heb44; listed as OnK29
  IC50 (−LogM): 7.2 −LogM
Heb44; listed as Onk29
  IC50 (−LogM): 8.1 −LogM
CT116P53
  IC50: < 31.6 µM
H2087
  IC50: 31.6 µM
